≈ marks a conversion by molar mass, not a printed value. Calls of active or inactive are those of the source. No cut-off for these calls is given here.

The term MIC denotes the lowest concentration that inhibits growth of the organism.

Series [1] deals with Candida albicans. Put plainly: Induction of morphological changes in Candida albicans SC5314 assessed as necrosis of cytoplasm at 10 times MIC after 45 mins by Uranyl acetate/Lead citrate staining based transmission electron microscopic analysis. The series is classed as functional, organism-based.
Series [2] concerns Candida albicans. Nature of the series: Synergistic antifungal activity against Candida albicans SC5314 after 48 hrs in presence of 800 nmol AmB. The series is classed as functional. The settings on record: SC5314, 48 h.
Series [3] has as its system Candida albicans. Nature of the series: Induction of morphological changes in Candida albicans SC5314 assessed as formation of abnormal curvature of cell membranes at MIC after 45 mins by Uranyl acetate/Lead citrate staining based transmission electron microscopic analysis. In kind it is functional, organism-based.
Series [4] concerns Candida albicans. Nature of the series: Antibiofilm activity against Candida albicans SC5314 incubated for overnight by XTT assay. The series is classed as functional. (Formazan colour is commonly taken as a measure of viable cells.)
Series [5] relates to Candida albicans. Nature of the series: Antifungal activity against Candida albicans SC5314 after 48 hrs. The series is classed as functional. As to conditions: SC5314, 48 h.
The subject of series [6] is Candida albicans. Nature of the series: Induction of ROS generation in Candida albicans SC5314 at 0.2 to 100 uM after 24 to 48 hrs in presence of ascorbic acid by DCF-DA staining based fluorescence assay. The series is classed as functional, organism-based.
The nature of series [7]: Haemolytic activity in mouse RBC at 1 mM incubated for 1 hr relative to control. In kind it is ADME, cell-based, Erythrocyte. As to conditions: mouse red blood cells (erythrocytes), read-out: Activity.
Series [8] deals with Candida albicans. Nature of the series: Induction of eradication of 24 hrs old preformed Candida albicans SC5314 biofilm after 24 to 48 hrs by XTT assay. In kind it is functional.
Series [9] relates to Candida albicans. Put plainly: Synergistic antifungal activity against Candida albicans SC5314 after 48 hrs in presence of 400 nmol AmB. The series is classed as functional. As to conditions: SC5314, 48 h.
The subject of series [10] is Candida albicans. Put plainly: Ratio of MIC for Candida albicans SC5314 to MIC for Candida albicans SC5314 in presence of 400 nmol AmB. The series is classed as functional.
In series [11] the test system is Candida albicans. Nature of the series: Induction of ROS generation in Candida albicans SC5314 after 24 to 48 hrs by DCF-DA staining based fluorescence assay. In kind it is functional, organism-based.
For series [12], the system named is Candida albicans. Put plainly: Ratio of MIC for Candida albicans SC5314 to MIC for Candida albicans SC5314 in presence of 800 nmol AmB. The series is classed as functional.
Series [13] deals with Candida albicans. Nature of the series: Induction of morphological changes in Candida albicans SC5314 assessed as disruption of fungal cell walls at 10 times MIC after 45 mins by Uranyl acetate/Lead citrate staining based transmission electron microscopic analysis. In kind it is functional, organism-based.
Series [14] has as its system Candida albicans. Put plainly: Ratio of MBEC50 for 24 hrs old preformed Candida albicans SC5314 biofilm to MIC for Candida albicans SC5314. In kind it is functional.
Series [15] has as its system Candida albicans. Nature of the series: Synergistic antifungal activity against Candida albicans SC5314 assessed as FIC index after 48 hrs in presence of 400 nmol AmB. In kind it is functional.
For series [16], the system named is Candida albicans. Put plainly: Induction of eradication of 48 hrs old preformed Candida albicans SC5314 biofilm at 62.5 uM after 24 to 48 hrs by XTT assay. The series is classed as functional, organism-based.
For series [17], the system named is Candida albicans. Nature of the series: Induction of morphological changes in Candida albicans SC5314 assessed as formation of distorted shape cells at MIC after 45 mins by Uranyl acetate/Lead citrate staining based transmission electron microscopic analysis. In kind it is functional, organism-based.
In series [18] the test system is Candida albicans. Nature of the series: Synergistic antifungal activity against Candida albicans SC5314 assessed as FIC index after 48 hrs in presence of 800 nmol AmB. The series is classed as functional.
Series [19] has as its system Candida albicans. Put plainly: Induction of morphological changes in Candida albicans SC5314 assessed as disruption of fungal cell membranes at 10 times MIC after 45 mins by Uranyl acetate/Lead citrate staining based transmission electron microscopic analysis. In kind it is functional, organism-based.

In the case of `CCC(C)CCC(=O)N[C@H](CCN)C(=O)N[C@@H](CCN)C(=O)N[C@@H](CCN)C(=O)N[C@@H](CC(C)C)C(=O)N[C@H](Cc1ccccc1)C(=O)N[C@@H](CCN)C(=O)N[C@@H](CCN)C(=O)N[C@@H](CC(C)C)C(=O)N[C@H](CCN)C(=O)N[C@@H](CCN)C(=O)N[C@@H](CCN)C(=O)N[C@@H](CC(C)C)C(=O)N[C@H](Cc1ccccc1)C(=O)N[C@@H](CCN)C(=O)N[C@@H](CCN)C(=O)N[C@@H](CC(C)C)C(=O)N[C@H](CCN)C(=O)N[C@@H](CCN)C(=O)N[C@@H](CCN)C(=O)N[C@@H](CC(C)C)C(=O)N[C@H](Cc1ccccc1)C(=O)N[C@@H](CCN)C(=O)N[C@@H](CCN)C(=O)N[C@@H](CC(C)C)C(N)=O` (some centres undefined), the outcome in series [1], in [3], in series [13], in series [16], in [17] and in [19] was Active. Besides, the values for the MIC in [2], in series [5] and in [9] were 0.78 µM, 6.25 µM (≈ 17.2 µg/mL) and 1.56 µM, respectively. This compound displayed an MBIC50 in series [4] of 6.25 µM. The result in series [6] was inactive. In addition, the hemolysis at 1 h, 1000 µM in series [7] amounted to 21%. Besides, the MBEC50 in [8] turned out to be 25 µM. Also, the Ratio in series [10] is 4; in series [12], 8 - 32; in series [14], 4. Further, in series [11], the Activity entry is “Dose-dependent effect”. The “fractional inhibitory concentration index (FICI)” value in series [15] stood at 1.25; in [18] it was 0.62.

The values above are taken from ChEMBL document CHEMBL4145514, “Unexplored antifungal activity of linear battacin lipopeptides against planktonic and mature biofilms of C. albicans” (Eur J Med Chem, 2018).
